Experimental data taken from article PMC6514978, “Synthesis, Antibacterial Activities, Mode of Action and Acute Toxicity Studies of New Oxazolidinone-Fluoroquinolone Hybrids” (Molecules, 2019).
≈ marks a conversion by molar mass, not a printed value.

Assays:
[1] = system: E. faecalis (72) clinical isolates; test: Susceptibility of clinical isolates (MIC); type: cell-based, Enterococcus faecalis; conditions: for Cumulative % of strains inhibited at MIC / No. of strains inhibited at MIC: E. faecalis (72)
Procedure: (§1) Susceptibility testing of oxazolidinone-fluoroquinolone hybrids against various bacteria was performed by the broth microdilution method as outlined by the Clinical and Laboratory Standards Institute (CLSI). Three types of media, including cation-adjusted Mueller Hinton broth, Haemophilus Test Medium and cation-adjusted Mueller Hinton broth that contained 3%–5% lysed horse blood, were used to culture the corresponding bacteria. […] A final inoculum of 5 × 10^5 CFU/mL was used and plates were read after incubation for 16–24 h at 35 °C. […] Standard quality control strains (ATCC) were included throughout. Each determination was repeated in triplicate.

[2] = system: protein synthesis (E. coli extract-based cell-free protein expression system); test: In vitro transcription/translation assay (S30 T7 cell-free system, Renilla luciferase); type: biochemical; conditions: E. coli S30 T7 cell-free transcription/translation, 1 h, 37 °C; read-out: IC50 Inhib. of Protein Synthesis
Procedure: The influence of hybrids OBP-4 and OBP-5 against protein synthesis was confirmed by the S30 T7 High-Yield Protein Expression System (Promega Co., Ltd.). The S30 T7 High-Yield Protein Expression System is an E. coli extract-based cell-free protein expression system, which can effectively transcribe and translate DNA fragments with a T7 promoter. The reaction system containing 1 μg plasmid DNA, 20 μL S30 Premix Plus and 18 μL T7 S30 Extract with or without compounds was incubated for 1 h at 37 °C with a rotational speed of 250 rpm, and terminated by cooling in ice for 5 min in a 96-well white multi-well plate. Then, 1.25 μL of the translation reaction mixture was added to 48.75 μL of Renilla Luciferase Assay Lysis Buffer, and mixed with 50 μL of Renilla Luciferase Assay Reagent (cat no. E2810; Promega). Renilla luciferase activity was measured on EnSpire® Multimode Plate Reader (PerkinElmer, Waltham, MA, USA). […] LZD was used as a positive control.

[3] = system: S. pneumoniae (13) clinical isolates; test: Susceptibility of clinical isolates (MIC); type: cell-based, Streptococcus pneumoniae; conditions: for Cumulative % of strains inhibited at MIC / No. of strains inhibited at MIC: S. pneumoniae (13)
Procedure: as §1

[4] = system: E. faecium (47) clinical isolates; test: Susceptibility of clinical isolates (MIC); type: cell-based, Enterococcus faecium; conditions: for Cumulative % of strains inhibited at MIC / No. of strains inhibited at MIC: E. faecium (47)
Procedure: as §1

[5] = system: S. aureus (46) clinical isolates; test: Susceptibility of clinical isolates (MIC); type: cell-based, Staphylococcus aureus; conditions: S. aureus (46)
Procedure: as §1

[6] = Enterococcus faecalis, E. faecalis, 72 clinical isolates

With `C[C@H]1CCc2c(N3CCC(O)(COc4ccc(N5C[C@H](CO)OC5=O)cc4F)CC3)c(F)cc3c(=O)c(C(=O)O)cn1c23` [OBP-4] as the compound, how does the “Cumulative % of strains inhibited at MIC” value ([1]; MIC 0.125 µg/mL) read?
Its value is 36.1%.

And the “No. of strains inhibited at MIC” value ([1]; MIC 0.125 µg/mL)?
The value was 17.

What about the “Cumulative % of strains inhibited at MIC” value ([1]; MIC 0.5 µg/mL) of the same compound?
The value was 98.6%.

And the “No. of strains inhibited at MIC” value ([1]; MIC 0.5 µg/mL)?
Its value is 2.

What about the “Cumulative % of strains inhibited at MIC” value ([1]; MIC 1 µg/mL) of the same compound?
Its value is 100.0%.

And the “No. of strains inhibited at MIC” value ([1]; MIC 1 µg/mL)?
The value was 1.

And the “Cumulative % of strains inhibited at MIC” value ([1]; MIC […])?
The value was 95.8%.

And the “No. of strains inhibited at MIC” value ([1]; MIC […])?
The value was 43.

And the “Cumulative % of strains inhibited at MIC” value ([1]; MIC ≤[…])?
Its value is 12.5%.

What about the “No. of strains inhibited at MIC” value ([1]; MIC ≤[…]) of the same compound?
Its value is 9.

What about the “fold higher activity than comparator agents” value ([1]; E. faecalis clinical isolates) of the same compound?
The value was 2- to 16 fold.

And the “MIC Range” value ([1]; E. faecalis, 72 clinical isolates)?
The value was at most 0.0625 to 1 µg/mL.

And the MIC50 [1, 6]?
The MIC50 was 0.25 µg/mL (≈ 0.417 µM).

And the MIC90 [1, 6]?
The MIC90 was 0.25 µg/mL (≈ 0.417 µM).

What about the IC50 [2] of the same compound?
Its IC50 is 5 µM.

What about the “Cumulative % of strains inhibited at MIC” value ([3]; MIC 0.125 µg/mL) of the same compound?
Its value is 38.5%.

What about the “No. of strains inhibited at MIC” value ([3]; MIC 0.125 µg/mL) of the same compound?
Its value is 3.

What about the “Cumulative % of strains inhibited at MIC” value ([3]; MIC 0.5 µg/mL) of the same compound?
The value was 100.0%.

What about the “No. of strains inhibited at MIC” value ([3]; MIC 0.5 µg/mL) of the same compound?
Its value is 1.

What about the “Cumulative % of strains inhibited at MIC” value ([3]; MIC […]) of the same compound?
The value was 92.3%.

What about the “No. of strains inhibited at MIC” value ([3]; MIC […]) of the same compound?
Its value is 7.

And the “Cumulative % of strains inhibited at MIC” value ([3]; MIC ≤[…])?
Its value is 15.4%.

What about the “No. of strains inhibited at MIC” value ([3]; MIC ≤[…]) of the same compound?
The value was 2.

What about the “MIC Range” value ([3]; S. pneumoniae, 13 clinical isolates) of the same compound?
The value was at most 0.0625 to 0.5 µg/mL.

What about the MIC50 ([3]; Streptococcus pneumoniae, S. pneumoniae, 13 clinical isolates, read-out: MIC50) of the same compound?
Its MIC50 is 0.25 µg/mL (≈ 0.417 µM).

And the MIC90 ([3]; Streptococcus pneumoniae, S. pneumoniae, 13 clinical isolates, read-out: MIC90)?
The MIC90 was 0.25 µg/mL (≈ 0.417 µM).

And the “Cumulative % of strains inhibited at MIC” value ([4]; MIC 0.5 µg/mL)?
Its value is 95.7%.

What about the “No. of strains inhibited at MIC” value ([4]; MIC 0.5 µg/mL) of the same compound?
Its value is 37.

And the “Cumulative % of strains inhibited at MIC” value ([4]; MIC 1 µg/mL)?
Its value is 97.9%.

What about the “No. of strains inhibited at MIC” value ([4]; MIC 1 µg/mL) of the same compound?
Its value is 1.

And the “Cumulative % of strains inhibited at MIC” value ([4]; MIC 2 µg/mL)?
The value was 100.0%.

And the “No. of strains inhibited at MIC” value ([4]; MIC 2 µg/mL)?
The value was 1.

What about the “No. of strains inhibited at MIC” value ([4]; MIC […]) of the same compound?
Its value is 8.

And the “fold higher activity than comparator agents” value ([4]; E. faecium clinical isolates)?
Its value is 16- to 128 fold.

What about the “MIC Range” value ([4]; E. faecium, 47 clinical isolates) of the same compound?
The value was 0.25 to 2 µg/mL.

And the “Cumulative % of strains inhibited at MIC” value ([5]; MIC 0.125 µg/mL)?
Its value is 93.5%.

What about the “No. of strains inhibited at MIC” value ([5]; MIC 0.125 µg/mL) of the same compound?
The value was 17.

What about the “Cumulative % of strains inhibited at MIC” value ([5]; MIC […]) of the same compound?
Its value is 100.0%.

And the “No. of strains inhibited at MIC” value ([5]; MIC […])?
Its value is 3.

And the “Cumulative % of strains inhibited at MIC” value ([5]; MIC ≤[…])?
The value was 56.5%.

What about the “No. of strains inhibited at MIC” value ([5]; MIC ≤[…]) of the same compound?
Its value is 26.
